This is an account of results in US20260199426A1, “CYCLIC LIPOPEPTIDE ANTIBIOTIC COMPOUNDS FOR USE IN THE TREATMENT OF PROTEIN AGGREGATION DISEASE” (DEUTSCHES ZENTRUM FÜR NEURODEGENERATIVE ERKRANKUNGEN E. V., priority 2022, published 2026).

The test system of the test is PS19 mouse model of tauopathy (human MAPT P301S). Kind of test: Behavior, neuropathology and survival of PS19 mice. Format: in vivo. The settings on record: 50, 100, and 150 mg/kg in feed, approximately 8 months.

*1 amine or outer side, *2 acyl side, *3 side chain or, on linkers, in order; H or OH if unused. Where a SMILES comes first, the peptide text is derived from it. Bridges are numbered along the chain shown (N, C = ends). [ ]: non-standard residue; d: D form. The star is where a group is joined. ξ: configuration not given here. X2 = O=C(C(N[*:1])c1ccc(OC2OC(CO)C(O)C(O)C2OC2OC(CO)C(O)C(O)C2O)cc1)[*:2]; Octa(2Z,4E)dienoyl(7-Me) = CC(C)C/C=C/C=C\C(=O)*; ξPhg(3-Cl-4-OH) = NC(C(=O)O)c1ccc(O)c(Cl)c1; X1 = NC(=O)C(O[*:3])C(N[*:1])C(=O)[*:2]; Hpg = N[CH](C(=O)O)c1ccc(O)cc1; Orn = NCCC[CH](N)C(=O)O

For the compound `CC(C)C/C=C/C=C\C(=O)NC(CC(N)=O)C(=O)NC1C(=O)NC(c2ccc(O)cc2)C(=O)NC(CCCN)C(=O)NC(C(C)O)C(=O)NC(c2ccc(O)cc2)C(=O)NC(c2ccc(O)cc2)C(=O)NC(C(C)O)C(=O)NC(Cc2ccccc2)C(=O)NC(CCCN)C(=O)NC(c2ccc(OC3OC(CO)C(O)C(O)C3OC3OC(CO)C(O)C(O)C3O)cc2)C(=O)NC(C(C)O)C(=O)NC(c2ccc(O)cc2)C(=O)NCC(=O)NC(CC(C)C)C(=O)NC(C)C(=O)NC(c2ccc(O)c(Cl)c2)C(=O)OC1C(N)=O` (centres unmarked) [Ramoplanin A2] ({Octa(2Z,4E)dienoyl(7-Me)}-N[X1][Hpg][Orn]T[Hpg][Hpg]TF[Orn][X2]T[Hpg]GLA[ξPhg(3-Cl-4-OH)]; ester 2-C; configuration not given here), the “cognition, neuropathology, and survival of PS19 mice” value is on record as “positive effect”; the “tau aggregation in PS19 mice” value was “inhibits tau aggregation”.
